Measured values taken from US12409174B2, “Combination of zibotentan and dapagliflozin for the treatment of endothelin related diseases” (priority 2020, dated 2025).

Experiments:
[1] = Effect of zibotentan, dapagliflozin and the combination on body weight, Experiment 2; conditions: Exp 2; for Prevention of BW gain compared to vehicle: administration period 7 days, FIG. 7
Procedure: (§1) In the second experiment (Experiment 2), the effect of zibotentan and dapagliflozin (alone or in combination) on Hct concentration and Hb was determined. Seventy-two animals were randomized on BW and Hct concentration, 2 to 3 days prior to administration of study drugs into the following groups; 1) Vehicle, 2) Zibotentan (30 mg/kg), 3) Zibotentan (100 mg/kg), 4) Dapagliflozin (3 mg/kg), 5) Zibotentan (30 mg/kg)+Dapagliflozin (3 mg/kg) and 6) Zibotentan (100 mg/kg)+Dapagliflozin (3 mg/kg). For practical reasons, the study was conducted in two consecutive slots with 36 animals (6/group) in each slot. Compounds were administered p.o. QD for seven days. Blood samples for bioanalysis were collected at 4 and 24 hr after the first dose and 24 hr after the final dose for Hct concentration and Hb analysis on day three and seven as described for exp.1. Twenty-four hour urine was collected between the third and fourth dose. 24 hr food and water intake was measured between day 2-3 and between day 6-7. With two animals per cage, food intake and water intake per animal in a cage was assessed by dividing the food intake and water intake of a cage by two.
(§2) The data for each feature measured was checked for a normal distribution and where appropriate a log transformation was applied to data with a non-normal distribution using R. Since the data were grouped by one factor Zibotentin doses or combined therapy, a one-way ANOVA was used to analyse traits measured at a single time point (GraphPad version 8 or R statistics package emmeans) and a linear mixed effects model (nlme package) in R was used to analyse multiple measures data for body weight. The differences between groups were tested using either a Dunnett test (emmeans package in R or GraphPad v8) when comparing treated groups to the vehicle group or a Tukey comparison (emmeans package in R or Graphpad v8.) for specific pairwise comparisons of treated groups. All model assumptions were checked using the model diagnostic plots in R statistics. Results are expressed as the Mean±standard error of the Mean (SEM) for pharmacodynamic parameters and Mean±standard deviation (SD) for compound concentration in blood and urine. Significance was set at p<0.05.
To assess the effect of the combined therapy on weight loss, body weight was measured every day and was compared using a linear mixed effects model.

[2] = tested on: male Wistar rats fed a 4% salt diet; experiment: Effect of zibotentan and dapagliflozin on Hb, Experiment 2; type: in vivo; conditions: Exp 2; for Basal Hb: baseline
Procedure: as §1
(§3) For Hct and Hb analysis, 100 μl of blood from rat's tail vein was collected and measured using CG8 cartridges analysed with an iSTAT instrument (Abbott Point of Care Inc, Abbot Park, IL, USA).
as §2

[3] = tested on: male Wistar rats fed a 4% salt diet; experiment: Effect on urinary volume, glucose, Na, K, urea and creatinine in the urine, Experiment 2; type: in vivo; conditions: Exp 2; for Urine Creatinine / Urine K / Urine Na / Urine Urea / Urine volume: 24 hr urine between third and fourth dose; for Urine glucose excretion: FIG. 8A
Procedure: as §1
(§4) Plasma and Urine Albumin, Creatinine, Glucose, Urea, Potassium and Sodium levels were analyzed using an ABX Pentra 400 instrument (Horiba Medical, Irvine, California, USA) according to the manufacturers protocol.
as §2

[4] = tested on: male Wistar rats fed a 4% salt diet; experiment: Effect of zibotentan and dapagliflozin on kidney and heart weight, Experiment 2; type: in vivo; conditions: Exp 2
Procedure: as §1, §2

[5] = tested on: male Wistar rats fed a 4% salt diet; experiment: 24 hr water and food intake, Experiment 2; type: in vivo; conditions: Exp 2; FIG. 8B and FIG. 8C
Procedure: as §1

[6] = tested on: male Wistar rats on 4% salt diet; experiment: Effect of zibotentan on haematocrit (Hct) concentration, Experiment 1; type: in vivo; conditions: Exp 1; for Hct concentration compared to vehicle: FIG. 4
Procedure: The effect of dapagliflozin and zibotentan on haematocrit (Hct) concentration in male Wistar rats on 4% salt diet was investigated.
(§5) In the first experiment (Experiment 1), the effect of zibotentan on haematocrit (Hct) concentration was determined when zibotentan was administered peroral (p.o) QD for 14 days. […] Animals were weighed daily prior to dosing throughout the experiment. Blood samples (20 μL) for bioanalysis were taken at 4 and 24 hr after the first dose via the tail vein from conscious animals and 24 hr after the last dose via retroorbital route from anesthetized animals. Blood samples were collected via tail vein (100 μL) for Hct concentration and haemoglobin (Hb) measurements, on day 7 and on day 14, 1-2 hr after dosing. Twenty-four hour urine was collected for the measurement of urinary glucose, urine volume and electrolytes between doses nine and ten. Animals were terminated 24 hr after the last dose. On the day of termination, animals were anesthetized using 5% isoflurane, and blood was collected via the retroorbital route (in heparin-coated microvette, Sarsted) and centrifuged at 3,500 rpm at 4° C. for 10 minutes, plasma was collected and stored at −80° C. degrees prior to analysis. Animals were then euthanized by the removal of the heart. Both the heart and the kidneys were extracted and weighed. From the right kidney, a 4 mm thick slice of tissue was collected and fixed in 4% formaldehyde for subsequent histological analysis and a piece of cortical kidney tissue and heart tissue was collected for gene expression analysis.
as §3
(§6) Significance was set at p<0.05.

[7] = Effect of zibotentan on body weight, Experiment 1; type: in vivo, male Wistar rats; conditions: Exp 1; for Body weight, Difference in means vs Vehicle: log scale, linear mixed effects model
Procedure: as §5, §6

[8] = tested on: male Wistar rats on 4% salt diet; experiment: Effect of zibotentan on urinary volume and Na, K, urea, creatinine, glucose in the urine, Experiment 1; type: in vivo; conditions: Exp 1; for Urine Creatine / Urine Glucose / Urine K / Urine Na / Urine Urea / Urine volume: 24 hr urine between doses nine and ten
Procedure: as §5, §4, §6

[9] = treatment of prostate cancer; development stopped in 2011; cited from earlier work

Structure (SMILES): CCOc1ccc(Cc2cc([C@@H]3O[C@H](CO)[C@@H](O)[C@H](O)[C@H]3O)ccc2Cl)cc1 [Dapa, (1S)-1,5-anhydro-1-{4-chloro-3-[(4-ethoxyphenyl)methyl]phenyl}-D-glucitol]
- Changes in body weight over the entire study, Difference ([1]; Dapa 3 mg/kg vs Vehicle): −0.03
- Prevention of BW gain compared to vehicle [1]: prevented this BW gain
- Day 3 Hb ([2]; Dapa 3 mg/kg p.o. QD): 164.4 g/L
- Day 7 Hb ([2]; Dapa 3 mg/kg p.o. QD): 159.1 g/L
- Basal Hb ([2]; group Dapa 3 mg/kg): 157.9 g/L
- 24-hour urine volume and urea excretion compared to vehicle [3]: increased
- Urine Na, K and creatinine compared to vehicle [3]: No change
- Urine Creatinine ([3]; Dapa 3 mg/kg p.o. QD): 76.42 µmol
- Urine K ([3]; Dapa 3 mg/kg p.o. QD): 1.40 mmol
- Urine Na ([3]; Dapa 3 mg/kg p.o. QD): 12.60 mmol
- Urine Urea ([3]; Dapa 3 mg/kg p.o. QD): 7.43 mmol
- Urine volume ([3]; Dapa 3 mg/kg p.o. QD): 43.13 mL
- Urine glucose excretion [3]: significantly increased
- Heart weight ([4]; Dapa 3 mg/kg p.o. QD 7 days): 0.85 g
- Heart/tibia length ([4]; Dapa 3 mg/kg p.o. QD 7 days): 22.08 mg/mm
- Kidney weight ([4]; Dapa 3 mg/kg p.o. QD 7 days): 2.01 g
- Kidney/tibia length ([4]; Dapa 3 mg/kg p.o. QD 7 days): 51.96 mg/mm
- Water and food intake compared to vehicle [5]: increased

Structure (SMILES): COc1nc(C)cnc1NS(=O)(=O)c1cccnc1-c1ccc(-c2nnco2)cc1 [Zibo, N-(3-methoxy-5-methylpyrazin-2-yl)-2-[4-(1,3,4-oxadiazol-2-yl)phenyl]pyridine-3-sulfonamide]
- Hct concentration compared to vehicle (significant decrease?) ([6]; zibotentan 30 mg/kg p.o. QD, day 14): not for the lower dose
- Hct concentration compared to vehicle ([6]; zibotentan 30, 100 and 300 mg/kg p.o. QD, day 7): significant (p<0.05) decrease
- Hct concentration compared to vehicle ([6]; zibotentan 100 and 300 mg/kg p.o. QD, day 14): significant (p<0.05) decrease
- Body weight, Difference in means vs Vehicle ([7]; Zibo 30 mg/kg p.o. QD 14 days): 0.02
- Body weight, Difference in means vs Vehicle ([7]; Zibo 100 mg/kg p.o. QD 14 days): 0.02
- Body weight, Difference in means vs Vehicle ([7]; Zibo 300 mg/kg p.o. QD 14 days): 0.01
- Body weight change compared to vehicle ([7]; zibotentan 30, 100 and 300 mg/kg): no difference
- Urine Creatine ([8]; Zibo 30 mg/kg p.o. QD): 88.8 ± 3.3 µmol
- Urine Glucose ([8]; Zibo 30 mg/kg p.o. QD): 0.01 ± 0.0 mmol
- Urine K ([8]; Zibo 30 mg/kg p.o. QD): 1.57 ± 0.05 mmol
- Urine Na ([8]; Zibo 30 mg/kg p.o. QD): 14.05 ± 0.95 mmol
- Urine Urea ([8]; Zibo 30 mg/kg p.o. QD): 6.19 ± 1.71 mmol
- Urine volume ([8]; Zibo 30 mg/kg p.o. QD): 28.19 ± 2.99 mL
- Urine Creatine ([8]; Zibo 100 mg/kg p.o. QD): 82.8 ± 2.5 µmol
- Urine Glucose ([8]; Zibo 100 mg/kg p.o. QD): 0.02 ± 0.0 mmol
- Urine K ([8]; Zibo 100 mg/kg p.o. QD): 1.52 ± 0.06 mmol
- Urine Na ([8]; Zibo 100 mg/kg p.o. QD): 13.01 ± 1.07 mmol
- Urine Urea ([8]; Zibo 100 mg/kg p.o. QD): 4.04 ± 0.39 mmol
- Urine volume ([8]; Zibo 100 mg/kg p.o. QD): 23.88 ± 2.02 mL
- Urine Creatine ([8]; Zibo 300 mg/kg p.o. QD): 82.9 ± 3.3 µmol
- Urine Glucose ([8]; Zibo 300 mg/kg p.o. QD): 0.18 ± 0.1 mmol
- Urine K ([8]; Zibo 300 mg/kg p.o. QD): 1.44 ± 0.03 mmol
- Urine Na ([8]; Zibo 300 mg/kg p.o. QD): 13.76 ± 0.76 mmol
- Urine Urea ([8]; Zibo 300 mg/kg p.o. QD): 4.60 ± 0.19 mmol
- Urine volume ([8]; Zibo 300 mg/kg p.o. QD): 29.09 ± 2.74 mL
- Level of urinary volume, Na, K, urea, creatinine and glucose compared to vehicle ([8]; different doses of zibotentan): no change
- Changes in body weight over the entire study, Difference ([1]; Zibo 30 mg/kg vs Vehicle): 0.01
- Changes in body weight over the entire study, Difference ([1]; Zibo 100 mg/kg vs Vehicle): 0.01
- Prevention of BW gain compared to vehicle [1]: did not
- Day 3 Hb ([2]; Zibo 30 mg/kg p.o. QD): 144.4 g/L
- Day 7 Hb ([2]; Zibo 30 mg/kg p.o. QD): 148.6 g/L
- Day 3 Hb ([2]; Zibo 100 mg/kg p.o. QD): 147.5 g/L
- Day 7 Hb ([2]; Zibo 100 mg/kg p.o. QD): 144.8 g/L
- Basal Hb ([2]; group Zibo 30 mg/kg): 160.2 g/L
- Basal Hb ([2]; group Zibo 100 mg/kg): 158.5 g/L
- 24-hour urine volume and urea excretion compared to vehicle [3]: No difference
- Urine Na, K and creatinine compared to vehicle [3]: No change
- Urine glucose excretion [3]: no effect
- Urine Creatinine ([3]; Zibo 30 mg/kg p.o. QD): 71.33 µmol
- Urine K ([3]; Zibo 30 mg/kg p.o. QD): 1.27 mmol
- Urine Na ([3]; Zibo 30 mg/kg p.o. QD): 10.67 mmol
- Urine Urea ([3]; Zibo 30 mg/kg p.o. QD): 4.61 mmol
- Urine volume ([3]; Zibo 30 mg/kg p.o. QD): 19.08 mL
- Urine Creatinine ([3]; Zibo 100 mg/kg p.o. QD): 68.18 µmol
- Urine K ([3]; Zibo 100 mg/kg p.o. QD): 1.16 mmol
- Urine Na ([3]; Zibo 100 mg/kg p.o. QD): 10.03 mmol
- Urine Urea ([3]; Zibo 100 mg/kg p.o. QD): 4.11 mmol
- Urine volume ([3]; Zibo 100 mg/kg p.o. QD): 19.08 mL
- Heart weight ([4]; Zibo 30 mg/kg p.o. QD 7 days): 0.96 g
- Heart/tibia length ([4]; Zibo 30 mg/kg p.o. QD 7 days): 24.75 mg/mm
- Kidney weight ([4]; Zibo 30 mg/kg p.o. QD 7 days): 2.05 g
- Kidney/tibia length ([4]; Zibo 30 mg/kg p.o. QD 7 days): 52.49 mg/mm
- Heart weight compared to vehicle, with or without normalizing to tibia length ([4]; Zibo 30 mg/kg, seven days): increased
- Heart weight ([4]; Zibo 100 mg/kg p.o. QD 7 days): 0.93 g
- Heart/tibia length ([4]; Zibo 100 mg/kg p.o. QD 7 days): 23.82 mg/mm
- Kidney weight ([4]; Zibo 100 mg/kg p.o. QD 7 days): 1.90 g
- Kidney/tibia length ([4]; Zibo 100 mg/kg p.o. QD 7 days): 48.20 mg/mm
- Water and food intake compared to vehicle [5]: unchanged
- Efficacy in Phase 3 [9]: insufficient efficacy
